Assay results from patent US11214556B1, “Method of treating colorectal cancer” (King Abdulaziz University, priority 2019, dated 2022).

Experiments:
Assay type in all cases: cell-based, human
HCT-116 cells = assay: SRB cytotoxicity assay, HCT-116; conditions: SRB assay, 72 h exposure, ± SEM
Description: Compounds in this study were tested against colorectal cancer cell line HCT-116, using sulforhodamine-B (SRB) assay. See Skehan, P.; Storeng, R.; Scudiero, D.; Monks, A.; McMahon, J.; Vistica, D.; Warren, J. T.; Bokesch, H.; Kenney, S.; Boyd, M. R., New colorimetric cytotoxicity assay for anticancer-drug screening. J Natl Cancer Inst 1990, 82 (13), 1107-12, incorporated herein by reference in its entirety. […] However, it was clear that compounds bearing hydrophobic aliphatic groups such as MOS-1505 and MOS-1512 are clearly favored in providing anticancer activities. […] The N-aryl substituents were less advantageous in both potency and solubility.
(§1) Different cell lines were originally purchased from American type culture collection (ATCC, Wesel, Germany) and grown in the tissue culture lab of the Egyptian company for production of vaccines, sera and drugs (Vacsera, Giza, Egypt). The cells were transferred to our laboratory and maintained in the appropriate media as following. HCT-116, CACO-2, and HT-29 (human colon cancer cell lines) were maintained in Roswell Park Memorial Institute medium (RPMI1640) (Invitrogen, Carlsbad, Calif.). The mouse skin fibroblasts (C-166) and Baby Hamster Kidney fibroblasts (BHK) were grown in Dulbecco Modified Eagle's medium (DMEM). Both media were supplemented with 1% of […] of streptomycin, 100 units/mL of penicillin and 10% of heat-inactivated fetal bovine serum (Invitrogen, Carlsbad, Calif.) in a humidified, 5% (v/v) CO2 atmosphere at 37° C.
(§2) The sulforhodamine B (SRB) assays were performed according to Skehan, P.; Storeng, R.; Scudiero, D.; Monks, A.; McMahon, J.; Vistica, D.; Warren, J. T.; Bokesch, H.; Kenney, S.; Boyd, M. R., New colorimetric cytotoxicity assay for anticancer-drug screening. J Natl Cancer Inst 1990, 82 (13), 1107-12, incorporated herein by reference in its entirety. Briefly, exponentially growing cells were trypsinized, counted and seeded at the appropriate densities (5000 cells/100 μL/well) into 96-well microtiter plates. Cells were incubated in a humidified atmosphere at 37° C. for 24 h. Then, the cells were exposed to different compounds at the desired concentrations, (0.01, 0.1, 1, 10, and 100 μM) or to 1% dimethyl sulfoxide (DMSO) for 72 h. At the end of the treatment period, the media were removed, and the cells were fixed with 10% trichloroacetic acid at 4° C. for 1 hr. Following, the cells were washed with tap water four times and incubated with SRB 0.4% for 30 min. Excess dye was removed by washing repeatedly with 1% (vol/vol) acetic acid. The protein-bound dye was dissolved in 10 mM Tris base solution for (optical density) OD determination at 510 nm using a SpectraMax plus Microplate Reader (Molecular Devices, CA). Cell viability was expressed relative to the untreated control cells.

CACO-2 cells = assay: SRB cytotoxicity assay, CACO-2; conditions: ± SEM
Text: (§3) Based on the favorable pharmacologic and physicochemical properties of MOS-1512, it was selected as a new lead for the second subset of compounds (MOS-1812 to MOS-5112). The compounds in this series contained variable groups at R^1 and R^2 that were all tested against the three cancer cell lines (HCT-116, Caco-2 and HT-29).
as §1, §2

HT-29 cells = assay: SRB cytotoxicity assay, HT-29; conditions: 72 h exposure, ± SEM
Text: as §3, §1, §2

[1] = Homo sapiens, Caco-2, 72 h exposure

SMILES	IC50 (HCT-116 cells; Homo sapiens, HCT-116)	IC50 (CACO-2 cells; [1])	IC50 (HT-29 cells; Homo sapiens, HT-29, monolayer)	IC50 (HCT-116 cells)	IC50 (CACO-2 cells; 72 h exposure)	IC50 (HT-29 cells; monolayer)
NC(=O)/C(=C/c1ccccc1)NC(=O)/C=C/c1ccccc1 [Compound 1508, N—[(Z)-3-amino-3-oxo-1-phenylprop-1-en-2-yl]-(E)-cinnamamide]	> 100 µM					
CN1CCN(NC(=O)/C(=C/c2ccccc2)NC(=O)/C=C/c2ccccc2)CC1 [Compound 1511, (Z)-2-[(E)-cinnamamido]-N-(4-methyl-1-piperazinyl)-3-phenyl-acrylamide]	> 100 µM					
N#Cc1cccc(NC(=O)/C(=C/c2ccccc2)NC(=O)/C=C/c2ccccc2)c1 [Compound 1513, (Z)-2-[(E)-cinnamamido]-N-(3-cyanophenyl)-3-phenyl-acrylamide]	> 100 µM					
O=C(/C=C/c1ccccc1)N/C(=C\c1ccccc1)C(=O)Nc1ccc(F)cc1 [Compound 1528, (Z)-2-[(E)-cinnamamido]-N-(4-fluorophenyl)-3-phenylacrylamide]	91.9 ± 4.4 µM					
O=C(/C=C/c1ccccc1)N/C(=C\c1ccccc1)C(=O)NCc1ccco1 [Compound 1530, (Z)-2-[(E)-cinnamamido]-N-(2-furylmethyl)-3-phenyl-acrylamide]	> 100 µM					
O=C(/C=C/c1ccccc1)N/C(=C\c1ccccc1)C(=O)NCCN1CCOCC1 [Compound 1531, (Z)-2-[(E)-cinnamamido]-N-(2-morpholinoethyl)-3-phenyl-acrylamide]	> 100 µM					
O=C(C=Cc1ccccc1)N/C(=C\c1ccccc1)C(=O)N1CCOCC1 [Compound 1536, N—[(Z)-3-morpholino-3-oxo-1-phenylprop-1-en-2-yl]cinnamamide]	> 100 µM					
O=C(C=Cc1ccccc1)N/C(=C\c1ccccc1)C(=O)N1CCCC1 [Compound 1555, N—[(Z)-3-(1-pyrrolidinyl)-3-oxo-1-phenylprop-1-en-2-yl]cinnamamide]	> 100 µM					
CCCCNC(=O)/C(=C/c1ccccc1)NC(=O)/C=C/c1ccccc1 [Compound 1556, (Z)—N-(n-butyl)-2-[(E)-cinnamamido]-3-phenylacrylamide]	67.2 ± 6.3 µM					
CCC(C)NC(=O)/C(=C/c1ccccc1)NC(=O)C=Cc1ccccc1 (stereo not shown) [Compound 1557, (Z)—N-(sec-butyl)-2-cinnamamido-3-phenylacrylamide]	52.4 ± 7.1 µM					
CCNC(=O)/C(=C/c1ccccc1)NC(=O)/C=C/c1ccccc1 [Compound 1558, (Z)-2-[(E)-cinnamamido]-N-ethyl-3-phenylacrylamide]	> 100 µM					
CCN(C)C(=O)/C(=C/c1ccccc1)NC(=O)C=Cc1ccccc1 [Compound 1559, (Z)-2-cinnamamido-N-ethyl-N-methyl-3-phenylacrylamide]	28.8 ± 1 µM					
CCCNC(=O)/C(=C/c1ccccc1)NC(=O)/C=C/c1ccc(Cl)cc1 [Compound 1812, (Z)-2-[(E)-3-(4-chlorophenyl)acrylamido]-3-phenyl-N-propylacrylamide]	10.3 ± 0.34 µM	10.7 ± 0.5 µM	7.9 ± 0.43 µM			
CCCNC(=O)/C(=C/c1ccccc1)NC(=O)/C=C/c1ccc(OC)cc1 [Compound 1912, (Z)-2-[(E)-3-(4-methoxyphenyl)acrylamido]-3-phenyl-N-propylacrylamide]	34.1 ± 1.8 µM	18.5 ± 1.5 µM	55.3 ± 3.2 µM			
CCCNC(=O)/C(=C/c1ccccc1)NC(=O)/C=C/c1ccc(C)cc1 [Compound 2012, (Z)-3-phenyl-N-propyl-2-[(E)-3-(p-tolyl)acrylamidolacry]amide]				35.2 ± 0.54 µM	12.7 ± 0.67 µM	54.1 ± 0.42 µM
CCCNC(=O)/C(=C/c1ccccc1)NC(=O)/C=C/c1cccs1 [Compound 2112, (Z)-3-phenyl-N-propyl-2-[(E)-3-(thien-2-yl)acrylamidolacry]amide]				43 ± 1.5 µM	27.8 ± 1.3 µM	43.2 ± 2.3 µM

SMILES	IC50 (HCT-116 cells; Homo sapiens, HCT-116)	IC50 (CACO-2 cells; [1])	IC50 (HT-29 cells; Homo sapiens, HT-29, monolayer)	IC50 (HCT-116 cells)	IC50 (CACO-2 cells; 72 h exposure)	IC50 (HT-29 cells; monolayer)
CCCNC(=O)/C(=C/c1ccc(F)cc1)NC(=O)C=Cc1ccccc1 [Compound 2212, (Z)-2-cinnamamido-3-(4-fluorophenyl)-N-propylacrylamide]	15.2 ± 1.2 µM	13.2 ± 1 µM	7.2 ± 0.31 µM			
CCCNC(=O)/C(=C/c1ccc(F)cc1)NC(=O)/C=C/c1ccc(OC)cc1 [Compound 2412, (Z)-3-(4-fluorophenyl)-2-[(E)-3-(4-methoxyphenyl)acrylamido]-N-propylacrylamide]	29.3 ± 1.2 µM	45.7 ± 1.2 µM	86.5 ± 2.9 µM			
CCCNC(=O)/C(=C/c1ccc(F)cc1)NC(=O)/C=C/c1ccc(C)cc1 [Compound 2512, (Z)-3-(4-fluorophenyl)-N-propyl-2-[(E)-3-(p-tolyl)acrylamidolacry]amide]				6.7 ± 0.36 µM	5.1 ± 0.17 µM	11.8 ± 0.18 µM
CCCNC(=O)/C(=C/c1ccc(F)cc1)NC(=O)/C=C/c1cccs1 [Compound 2612, (Z)-3-(4-fluorophenyl)-N-propyl-2-[(E)-3-(thien-2-yl)acrylamidolacry]amide]				17.3 ± 0.13 µM	10.7 ± 0.68 µM	7.68 ± 0.05 µM
CCCNC(=O)/C(=C/c1ccc(N(C)C)cc1)NC(=O)C=Cc1ccccc1 [Compound 2712, (Z)-2-cinnamamido-3-[4-(dimethylamino)phenyl]-N-propylacrylamide]	6.95 ± 0.46 µM	4.24 ± 0.09 µM	6.8 ± 0.05 µM			
CCCNC(=O)/C(=C/c1ccc(N(C)C)cc1)NC(=O)/C=C/c1ccc(OC)cc1 [Compound 2912, (Z)-3-[4-(dimethylamino)phenyl]-2-[(E)-3-(4-methoxyphenyl)acrylamido]-N-propylacrylamide]	12.4 ± 0.25 µM	15.3 ± 0.05 µM	36.9 ± 0.25 µM			
CCCNC(=O)/C(=C/c1ccc(N(C)C)cc1)NC(=O)/C=C/c1ccc(C)cc1 [Compound 3012, (Z)-3-[4-(dimethylamino)phenyl]-N-propyl-2-[(E)-3-(p-tolyl)acrylamidolacry]amide]				22.1 ± 0.1 µM	29.4 ± 0.08 µM	39.6 ± 0.22 µM
CCCNC(=O)/C(=C/c1ccc(N(C)C)cc1)NC(=O)/C=C/c1cccs1 [Compound 3112, (Z)-3-[4-(dimethylamino)phenyl]-N-propyl-2-[(E)-3-(thien-2-yl)acrylamidolacry]amide]				11.6 ± 0.39 µM	27.7 ± 3.7 µM	66.5 ± 0.1 µM
CCCNC(=O)/C(=C/c1ccc(O)c(OC)c1)NC(=O)C=Cc1ccccc1 [Compound 3212, (Z)-2-cinnamamido-3-(4-hydroxy-3-methoxyphenyl)-N-propylacrylamide]	> 100 µM	6.32 ± 0.02 µM	9.14 ± 0.23 µM			
CCCNC(=O)/C(=C/c1ccc(O)c(OC)c1)NC(=O)/C=C/c1ccc(Cl)cc1 [Compound 3312, (Z)-2-[(E)-3-(4-chlorophenyl)acrylamido]-3-(4-hydroxy-3-methoxyphenyl)-N-propylacrylamide]	37.8 ± 1.8 µM	6.1 ± 0.44 µM	5.4 ± 0.34 µM			
CCCNC(=O)/C(=C/c1ccc(O)c(OC)c1)NC(=O)/C=C/c1ccc(OC)cc1 [Compound 3412, (Z)-3-(4-hydroxy-3-methoxyphenyl)-2-[(E)-3-(4-methoxyphenyl)acrylamido]-N-propylacrylamide]	38.4 ± 2.1 µM	18 ± 1.2 µM	48.6 ± 0.4 µM			
CCCNC(=O)/C(=C/c1ccc(O)c(OC)c1)NC(=O)/C=C/c1ccc(C)cc1 [Compound 3512, (Z)-3-(4-hydroxy-3-methoxyphenyl)-N-propyl-2-[(E)-3-(p-tolyl)acrylamidolacry]amide]				26.3 ± 1.3 µM	20.9 ± 1.1 µM	15.1 ± 0.67 µM
CCCNC(=O)/C(=C/c1ccc(O)c(OC)c1)NC(=O)/C=C/c1cccs1 [Compound 3612, (Z)-3-(4-hydroxy-3-methoxyphenyl)-N-propyl-2-[(E)-3-(thien-2-yl)acrylamidolacry]amide]				24.8 ± 1.4 µM	28.3 ± 1.3 µM	48.3 ± 1.9 µM
CCCNC(=O)/C(=C/c1c[nH]c2ccccc12)NC(=O)/C=C/c1ccc(C)cc1 [Compound 4012, (Z)-3-(1H-indol-3-yl)-N-propyl-2-[(E)-3-(p-tolyl)acrylamidolacry]amide]				3.39 ± 0.1 µM	2.3 ± 0.08 µM	3.12 ± 0.06 µM
O=C/C=C/c1ccccc1 [tCA, trans-cinnamaldehyde, reference compound]	12.4 ± 1.2 µM					
